For two compounds, Emax and Ki results are on record in patent US11141455B2, “Peptide analogues with branched amino acid probe(s)” (priority 2014, dated 2021).

Where a SMILES comes first, the peptide text is derived from it.

One assay concerns the target T1, human GLP-1 receptor (Homo sapiens, UniProt P43220).
T1 construct: expressed in transfected cells; host or cells: CHO-K1 cells
The assay can be described thus: cAMP production (HTRF) in CHO-K1 cells expressing GLP-1 receptor. As to conditions: CHO-K1; read-out: Max efficacy in % of control peptide. It counts as cell-based.

A further assay addresses T2, MC3r (Homo sapiens, UniProt P41968).
T2 construct: 0959 (cAMP); host or cells: CHO cells
The experiment in a line: Radioligand binding, displacement of 125I-NDP-αMSH (Cerep). As to conditions: Example 2, α-MSH analogues. As for the experimental part:
Murine B16-F1 cells expressing MCr1 are used for determination of binding affinity to and agonist activity against the MC1r. Human recombinant CHO cells expressing MC3r, MC4r or MC5r are used for determination of affinity to or agonist activity against the MC3r, MC4r and MC5r, respectively. […] The test items are tested in a concentration range of 10^−13 to 10^−5M.
In general terms: Loss of bound radioactivity is the signal in a displacement assay; it reports binding, not function.

Assay [1] addresses T3, recombinant human type 2 Formyl peptide receptor (FPR2) (Homo sapiens, UniProt P25090).
T3 construct: expressed in transfected cells
T3 sequence (P25090 1-351): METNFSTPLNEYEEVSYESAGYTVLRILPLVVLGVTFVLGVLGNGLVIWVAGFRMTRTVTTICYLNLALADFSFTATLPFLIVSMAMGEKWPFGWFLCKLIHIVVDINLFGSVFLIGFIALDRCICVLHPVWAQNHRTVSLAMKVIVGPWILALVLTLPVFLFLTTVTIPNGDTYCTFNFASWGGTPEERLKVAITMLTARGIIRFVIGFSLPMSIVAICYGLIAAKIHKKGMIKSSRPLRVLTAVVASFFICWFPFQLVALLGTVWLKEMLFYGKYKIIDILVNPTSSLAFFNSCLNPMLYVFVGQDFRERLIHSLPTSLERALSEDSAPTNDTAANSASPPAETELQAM
The assay can be described thus: Aequorin light emission agonist assay in recombinant FPR2 cells. To be noted: at the highest tested dose; read-out: maximal agonist activity, % of max response of internal control Trp-Lys-Tyr-Met-Val-Met. It counts as cell-based. On the procedure: Recombinant cells co-expressing mitochondrial apoaequirin and recombinant human type 2 Formyl peptide receptor (FPR2) were grown for 18 hours prior to testing in media without antibiotics were detached by gentle flushing with PBS-EDTA (5 mM EDTA), recovered by centrifugation and re-suspended in assay buffer (DHEM/HAM's F12 with HEPES and 0.1% protease free BSA). Cells were then incubated for at least 4 hours at room temperature coelenterazine h (from Molecular Probes) before DR studies were conducted.
50 μl of cell suspension was injected on 50 μl of the test or control compound (solubilized in PBS/0.5% BSA and finally diluted from a stock solution of 1 mM) at increasing concentrations in 96 wells plates and then incubated 30 min at room temperature. The resulting light emission was recorded using the Hamamatsu functional drug Screening system 6000 (FDSS6000). For standardization of emission of recorded light across plates and between experiments 100 μM digitonin or 20 μM ATP were added to some of the wells.
The test compounds were tested in a concentration range from 10^−11 to 10^−5M
Data is presented as mean values.

T1 sequence (P43220 24-463): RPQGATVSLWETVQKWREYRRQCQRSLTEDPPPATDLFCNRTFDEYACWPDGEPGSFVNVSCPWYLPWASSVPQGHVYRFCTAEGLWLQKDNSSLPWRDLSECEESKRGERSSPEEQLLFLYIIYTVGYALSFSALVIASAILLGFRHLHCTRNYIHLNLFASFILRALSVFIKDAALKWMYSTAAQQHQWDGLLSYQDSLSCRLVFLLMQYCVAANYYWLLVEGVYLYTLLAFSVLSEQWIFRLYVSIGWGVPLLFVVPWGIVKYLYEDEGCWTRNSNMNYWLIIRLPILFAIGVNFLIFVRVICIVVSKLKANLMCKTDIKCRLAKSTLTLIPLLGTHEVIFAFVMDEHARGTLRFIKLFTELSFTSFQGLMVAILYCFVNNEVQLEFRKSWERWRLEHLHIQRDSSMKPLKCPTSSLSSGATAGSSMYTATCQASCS
T2 sequence (P41968 whole entry): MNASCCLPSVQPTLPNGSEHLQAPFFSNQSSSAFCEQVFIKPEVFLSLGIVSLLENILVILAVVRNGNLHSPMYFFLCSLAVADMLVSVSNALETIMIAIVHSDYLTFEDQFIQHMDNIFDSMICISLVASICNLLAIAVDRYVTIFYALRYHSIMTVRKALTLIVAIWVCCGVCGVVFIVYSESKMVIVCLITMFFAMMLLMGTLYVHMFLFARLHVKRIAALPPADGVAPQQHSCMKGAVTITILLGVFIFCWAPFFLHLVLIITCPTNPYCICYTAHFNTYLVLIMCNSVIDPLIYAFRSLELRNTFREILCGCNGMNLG

`CSCC[C@H](NC(=O)[C@H](CO)NC(=O)[C@H](Cc1ccc(O)cc1)NC(=O)[C@H](CO)NC(=O)[C@H](CCCCNC(=O)[C@H](CCCCN)NC(=O)[C@H](CCCCN)NC(C)=O)NC(C)=O)C(=O)N[C@@H](CCC(=O)O)C(=O)N[C@@H](Cc1c[nH]cn1)C(=O)N[C@@H](Cc1ccccc1)C(=O)N[C@@H](CCCNC(=N)N)C(=O)N[C@@H](Cc1c[nH]c2ccccc12)C(=O)NCC(=O)N[C@@H](CCCCN)C(=O)N1CCC[C@H]1C(=O)N[C@H](C(N)=O)C(C)C` [Analogue 1]: the Emax at human GLP-1 receptor worked out at 101%. In addition, on MC3r, the Ki (commonly the dissociation constant of the complex between target and ligand, obtained from inhibition or displacement) turned out to be 24 nM.
Regarding `CSCC[C@H](NC(=O)[C@H](C)NC(C)=O)C(=O)N[C@H](C(=O)N[C@@H](CO)C(=O)N[C@@H](CCC(=O)O)C(=O)N[C@@H](Cc1ccccc1)C(=O)N[C@@H](CC(C)C)C(=O)N[C@@H](CCCCNC(=O)[C@H](CCCCN)NC(=O)[C@H](CCCCNC(=O)[C@H](CCCCN)NC(C)=O)NC(C)=O)C(=O)N[C@@H](CCC(N)=O)C(=O)N[C@@H](C)C(=O)N[C@@H](Cc1c[nH]c2ccccc12)C(N)=O)C(C)C` [analogue 7] (HELM PEPTIDE1{[ac].A.M.V.S.E.F.L.K.Q.A.W.[am]}|PEPTIDE2{[CC(=O)N[C@@H](CCCCN)C(=O)NCCCC[C@H](NC(C)=O)C(=O)[*:2]].K}$PEPTIDE1,PEPTIDE2,9:R3-2:R2$$$V2.0), in assay [1], the Emax is 85%.
